Test results taken from patent US9951065B2 (Gilead Sciences, Inc., priority 2015, dated 2018).

Target: T1, IDO1 (Homo sapiens, UniProt P14902)
T1 construct: HeLa cells were treated with a test compound in the presence of IFNγ, which induces IDO1 expression; host or cells: H1-HeLa cells, IDO1 induced with IFNγ
Experiment: Cell-based (HeLa) assay for measurement of IDO1 inhibition (kynurenine levels in supernatant after IFNγ induction)
Conditions: HeLa cells, geometric mean of a minimum of four determinations
Method: Example 509. Cell-Based (HeLa) Assay for Measurement of IDOL Inhibition
To measure IDO1 inhibition in tissue culture, HeLa cells were treated with a test compound in the presence of IFNγ, which induces IDO1 expression. Following incubation, cell supernatants were assayed for kynurenine levels, an indicator of IDO1 activity.
H1-HeLa cells (ATCC #CRL-1958) were seeded in 384-well plates (Greiner #82051-282) at a volume of 50 μL/well in DMEM (Corning #15-018-CM) supplemented with 10% FBS (Corning #35-011-CV) and 1% P/S/G (Corning #30-009-CL) at a density of 1,250 cells/well and incubated overnight at 37° C., 5% CO2/100% humidity. The following day, the test compounds were added in DMSO (0.5% final) at various concentrations, and IDO1 was inducibly expressed by the addition of 50 uL/well of […] of INFγ (Peprotech #300-02) in cell plating media. As a […] control, 50 uL of the cell plating media without IFNγ was added to several wells. Following a 48 hour incubation, the plates were spun down at 1,200 RPM for 5 min at 10° C. 65 μL/well of the supernatant was then transferred to new 384-well plates (Thermo #262160) that contained 10 uL/well of 30% TCA (Sigma #TO699), and the plates were sealed and incubated at 60° C. for 30 min. The plates were then centrifuged for 15 min at 2,000 RPM at 10° C. 40 μL/well of the supernatant was transferred to new 384-well plates (Thermo #262160) and was reacted with 40 μL/well of 2% (w/v) p-dimethlyaminobenzaldehyde (Sigma #156417) in glacial acetic acid (Sigma #A6283). The reaction was incubated at room temperature for 10 min and absorbance at 480 nm was read using a PerkinElmer Envision plate reader.
Data in Table 1 were normalized based on positive (−IFNγ) and negative (+IFNγ) controls and EC50 values were calculated from the fit of the dose response curves to a four-parameter equation. All EC50 values represent geometric mean values of a minimum of four determinations. These assays generally produced results within 2-fold of the reported mean.

[1] = IFNγ-induced IDO1, kynurenine in supernatant, 48 hour incubation
[2] = IFNγ-induced IDO1, kynurenine in supernatant after 48 hour incubation

T1 sequence (P14902 whole entry): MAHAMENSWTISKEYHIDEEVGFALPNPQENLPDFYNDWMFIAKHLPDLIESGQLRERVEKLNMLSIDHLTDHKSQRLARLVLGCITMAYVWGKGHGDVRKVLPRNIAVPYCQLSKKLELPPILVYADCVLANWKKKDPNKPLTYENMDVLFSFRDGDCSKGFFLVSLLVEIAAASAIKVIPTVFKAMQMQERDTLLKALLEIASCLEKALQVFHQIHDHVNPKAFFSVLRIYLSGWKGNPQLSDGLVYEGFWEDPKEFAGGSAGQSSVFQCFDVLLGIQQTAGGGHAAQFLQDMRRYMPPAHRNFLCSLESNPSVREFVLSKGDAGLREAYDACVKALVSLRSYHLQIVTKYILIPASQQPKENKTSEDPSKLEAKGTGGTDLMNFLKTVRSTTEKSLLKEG

EC50 [1] | EC50 [2] | Compound
1950 nM |  | O/N=C(\Nc1ccc(F)c(Cl)c1)c1cc(F)c(F)c2nc(N[C@H]3CCCNC3)[nH]c12 [Example 445, (S)—N-(3-chloro-4-fluorophenyl)-4,5-difluoro-N′-hydroxy-2-(piperidin-3-ylamino)-1H-benzo[d]imidazole-7-carboximidamide]
651 nM |  | COCCN1CCCC(Nc2nc3c(F)c(F)cc(/C(=N/O)Nc4ccc(F)c(Cl)c4)c3[nH]2)C1 (stereo not shown) [Example 453, N-(3-chloro-4-fluorophenyl)-4,5-difluoro-N′-hydroxy-2-((1-(2-methoxyethyl)piperidin-3-yl)amino)-1H-benzo[d]imidazole-7-carboximidamide]
332 nM |  | CN(CCNc1nc2c(F)c(F)cc(/C(=N/O)Nc3ccc(F)c(Cl)c3)c2[nH]1)CC1CCOCC1 [Example 394, N-(3-chloro-4-fluorophenyl)-4,5-difluoro-N′-hydroxy-2-((2-(methyl((tetrahydro-2H-pyran-4-yl)methyl)amino)ethyl)amino)-1H-benzo[d]imidazole-7-carboximidamide]
 | 3260 nM | OCCNc1nc2c(F)c(F)cc(/C(=N/O)Nc3ccc(F)c(Cl)c3)c2[nH]1 [Example 295, N-(3-chloro-4-fluorophenyl)-4,5-difluoro-N′-hydroxy-2-((2-hydroxyethyl)amino)-1H-benzo[d]imidazole-7-carboximidamide]
 | 1090 nM | CNCCc1nc2c(/C(=N/O)Nc3ccc(F)c(Cl)c3)cc(F)c(F)c2[nH]1 [Example 57, N-(3-Chloro-4-fluorophenyl)-6,7-difluoro-N′-hydroxy-2-(2-(methylamino)ethyl)-1H-benzo[d]imidazole-4-carboximidamide]
1520 nM |  | O/N=C(\Nc1ccc(F)c(Cl)c1)c1cc(F)c(F)c2nc(NC3CNCCOC3)[nH]c12 (stereo not shown) [Example 477, 2-((1,4-oxazepan-6-yl)amino)-N-(3-chloro-4-fluorophenyl)-4,5-difluoro-N′-hydroxy-1H-benzo[d]imidazole-7-carboximidamide]
432 nM |  | CN(C)CC(C)(C)CNc1nc2c(F)c(F)cc(/C(=N/O)Nc3ccc(F)c(Cl)c3)c2[nH]1 [Example 351, N-(3-chloro-4-fluorophenyl)-2-((3-(dimethylamino)-2,2-dimethylpropyl)amino)-4,5-difluoro-N′-hydroxy-1H-benzo[d]imidazole-7-carboximidamide]
1810 nM |  | CN1CC(N)[C@H](Nc2nc3c(F)c(F)cc(/C(=N/O)Nc4ccc(F)c(Cl)c4)c3[nH]2)C1 (stereo partly drawn) [Example 435, 2-(((3R)-4-amino-1-methylpyrrolidin-3-yl)amino)-N-(3-chloro-4-fluorophenyl)-4,5-difluoro-N′-hydroxy-1H-benzo[d]imidazole-7-carboximidamide]
 | > 10000 nM | NC(=O)CCNc1nc2c(F)c(F)cc(/C(=N/O)Nc3ccc(F)c(Cl)c3)c2[nH]1 [Example 229]
2450 nM |  | CC1(C)CNC1CNc1nc2c(F)c(F)cc(/C(=N/O)Nc3ccc(F)c(Cl)c3)c2[nH]1 (stereo not shown) [Example 472, N-(3-chloro-4-fluorophenyl)-2-(((3,3-dimethylazetidin-2-yl)methyl)amino)-4,5-difluoro-N′-hydroxy-1H-benzo[d]imidazole-7-carboximidamide]
 | 514 nM | CC(CN1CCOCC1)Nc1nc2c(F)c(F)cc(/C(=N/O)Nc3ccc(F)c(Cl)c3)c2[nH]1 (stereo not shown) [Example 37, N-(3-Chloro-4-fluorophenyl)-4,5-difluoro-N′-hydroxy-2-((1-morpholinopropan-2-yl)amino)-1H-benzo[d]imidazole-7-carboximidamide]
555 nM |  | CN(CCNc1nc2c(F)c(F)cc(/C(=N/O)Nc3ccc(F)c(Cl)c3)c2[nH]1)CC1CC1 [Example 398, N-(3-chloro-4-fluorophenyl)-2-((2-((cyclopropylmethyl)(methyl)amino)ethyl)amino)-4,5-difluoro-N′-hydroxy-1H-benzo[d]imidazole-7-carboximidamide]
472 nM |  | CN(C)C1CCCC1Nc1nc2c(F)c(F)cc(/C(=N/O)Nc3ccc(F)c(Cl)c3)c2[nH]1 (stereo not shown) [Example 461, N-(3-chloro-4-fluorophenyl)-2-((2-(dimethylamino)cyclopentyl)amino)-4,5-difluoro-N′-hydroxy-1H-benzo[d]imidazole-7-carboximidamide]

More lines, now with the values behind:

Compound | EC50 [1] | EC50 [2]
CCOC(=O)Nc1nc2nccc(/C(=N/O)Nc3ccc(F)c(Cl)c3)c2[nH]1 [Example 160, Ethyl (7-(N-(3-chloro-4-fluorophenyl)-N′-hydroxycarbamimidoyl)-1H-imidazo[4,5-b]pyridin-2-yl)carbamate] |  | 423 nM
O/N=C(\Nc1ccc(Cl)c(Br)c1)c1ccnc2nc[nH]c12 [Example 85, N-(3-Bromo-4-chlorophenyl)-N′-hydroxy-1H-imidazo[4,5-b]pyridine-7-carboximidamide] |  | 462 nM
CN1CCOC[C@H]1CNc1nc2nccc(/C(=N/O)Nc3ccc(F)c(Cl)c3)c2[nH]1 [Example 482, (R)-N-(3-chloro-4-fluorophenyl)-N′-hydroxy-2-(((4-methylmorpholin-3-yl)methyl)amino)-1H-imidazo[4,5-b]pyridine-7-carboximidamide] | 2650 nM | 
O/N=C(\Nc1ccc(F)c(Cl)c1)c1ccnc2nc(CNCC3CCOC3)[nH]c12 (stereo not shown) [Example 135, N-(3-Chloro-4-fluorophenyl)-N′-hydroxy-2-((((tetrahydrofuran-3-yl)methyl)amino)methyl)-1H-imidazo[4,5-b]pyridine-7-carboximidamide] |  | 5110 nM
CNc1nc2nccc(/C(=N/O)Nc3cccc(Cl)c3)c2[nH]1 [Example 166, N-(3-Chlorophenyl)-N′-hydroxy-2-(methylamino)-1H-imidazo[4,5-b]pyridine-7-carboximidamide] |  | 383 nM
O/N=C(\Nc1ccc(F)c(Cl)c1)c1ccnc2nc(CC3CCCN3)[nH]c12 (stereo not shown) [Example 329, N-(3-chloro-4-fluorophenyl)-N′-hydroxy-2-(pyrrolidin-2-ylmethyl)-1H-imidazo[4,5-b]pyridine-7-carboximidamide] | 5000 nM | 
Cc1c(F)cc(/C(=N/O)Nc2ccc(F)c(Cl)c2)c2[nH]cnc12 [Example 9, N-(3-Chloro-4-fluorophenyl)-6-fluoro-N′-hydroxy-7-methyl-3H-benzimidazole-4-carboximidamide] |  | 634 nM
O/N=C(\Nc1ccc(F)c(Cl)c1)c1ccnc2nc(NCCN3CC[C@H](O)C3)[nH]c12 [Example 279, (S)—N-(3-chloro-4-fluorophenyl)-N′-hydroxy-2-((2-(3-hydroxypyrrolidin-1-yl)ethyl)amino)-1H-imidazo[4,5-b]pyridine-7-carboximidamide] |  | 5280 nM
CS(=O)(=O)NCc1nc2nccc(/C(=N/O)Nc3ccc(F)c(Cl)c3)c2[nH]1 [Example 181, N-(3-Chloro-4-fluorophenyl)-N′-hydroxy-2-(methylsulfonamidomethyl)-1H-imidazo[4,5-b]pyridine-7-carboximidamide] |  | 8970 nM
CCNCc1nc2c(F)c(F)cc(/C(=N/O)Nc3cccc(Cl)c3)c2[nH]1 [Example 28, N-(3-Chlorophenyl)-2-((ethylamino)methyl)-4,5-difluoro-N′-hydroxy-1H-benzo[d]imidazole-7-carboximidamide] |  | 801 nM
O/N=C(\Nc1ccc(F)c(Cl)c1)c1ccnc2nc(NCCc3ccccc3)[nH]c12 [Example 156, N-(3-Chloro-4-fluorophenyl)-N′-hydroxy-2-(phenethylamino)-1H-imidazo[4,5-b]pyridine-7-carboximidamide] |  | 769 nM
O/N=C(\Nc1cccc(Cl)c1)c1cc(F)c(F)c2nc(CNCC3CC3)[nH]c12 [Example 25, N-(3-Chlorophenyl)-2-(((cyclopropylmethyl)amino)methyl)-4,5-difluoro-N′-hydroxy-1H-benzo[d]imidazole-7-carboximidamide] |  | 1460 nM
CN(C)Cc1nc2c(F)ccc(/C(=N/O)Nc3ccc(F)c(Cl)c3)c2[nH]1 [Example 288, N-(3-chloro-4-fluorophenyl)-2-((dimethylamino)methyl)-4-fluoro-N′-hydroxy-1H-benzo[d]imidazole-7-carboximidamide] |  | 1820 nM
O/N=C(\Nc1ccc(F)c(Cl)c1)c1ccnc2nc(NCCNCC(F)F)[nH]c12 [Example 230, N-(3-chloro-4-fluorophenyl)-2-((2-((2,2-difluoroethyl)amino)ethyl)amino)-N′-hydroxy-1H-imidazo[4,5-b]pyridine-7-carboximidamide] |  | 3840 nM
O/N=C(\Nc1ccc(F)c(OC(F)(F)F)c1)c1ccnc2nc[nH]c12 [Example 101, N-(4-Fluoro-3-(trifluoromethoxy)phenyl)-N′-hydroxy-1H-imidazo[4,5-b]pyridine-7-carboximidamide] |  | 845 nM
